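GI50 = concentration required for 50% inhibition of growth. The concentration for full growth arrest is given as TGI.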
Experiments:
Experiment in all cases: DTP human tumour cell line panel, 384-well format
HOP-62 NSCLC = tested on: HOP-62 NSCLC
HS 578T breast = tested on: HS 578T breast
MCF7 breast = tested on: MCF7 breast
HL-60(TB) leukemia = tested on: HL-60(TB) leukemia
MALME-3M melanoma = tested on: MALME-3M melanoma
NCI-H460 NSCLC = tested on: NCI-H460 NSCLC
SF-268 CNS = tested on: SF-268 CNS
A498 renal = tested on: A498 renal
LOX IMVI melanoma = tested on: LOX IMVI melanoma
SN12C renal = tested on: SN12C renal
CAKI-1 renal = tested on: CAKI-1 renal
SNB-19 CNS = tested on: SNB-19 CNS
RXF 393 renal = tested on: RXF 393 renal
UACC-257 melanoma = tested on: UACC-257 melanoma
NCI/ADR-RES ovarian = tested on: NCI/ADR-RES ovarian
A549 NSCLC = tested on: A549 NSCLC
MDA-MB-468 breast = tested on: MDA-MB-468 breast
U251 glioblastoma = tested on: U251 glioblastoma
SK-MEL-2 melanoma = tested on: SK-MEL-2 melanoma
KM12 colon = tested on: KM12 colon
SW-620 colon = tested on: SW-620 colon
OVCAR-5 ovarian = tested on: OVCAR-5 ovarian
DU-145 prostate = tested on: DU-145 prostate
UO-31 renal = tested on: UO-31 renal
ACHN renal = tested on: ACHN renal
NCI-H226 lung = tested on: NCI-H226 lung
HT29 colon = tested on: HT29 colon
EKVX NSCLC = tested on: EKVX NSCLC
RPMI-8226 leukemia = tested on: RPMI-8226 leukemia
BT-549 breast = tested on: BT-549 breast
NCI-H23 lung = tested on: NCI-H23 lung
COLO 205 colon = tested on: COLO 205 colon
MDA-MB-231 breast = tested on: MDA-MB-231 breast
CCRF-CEM leukemia = tested on: CCRF-CEM leukemia
SK-MEL-28 melanoma = tested on: SK-MEL-28 melanoma
SK-MEL-5 melanoma = tested on: SK-MEL-5 melanoma
MOLT-4 leukemia = tested on: MOLT-4 leukemia
PC-3 prostate = tested on: PC-3 prostate
IGROV1 ovarian = tested on: IGROV1 ovarian
NCI-H522 lung = tested on: NCI-H522 lung
T-47D breast = tested on: T-47D breast
OVCAR-3 ovarian = tested on: OVCAR-3 ovarian
HOP-92 NSCLC = tested on: HOP-92 NSCLC
K-562 leukemia = tested on: K-562 leukemia
TK-10 renal = tested on: TK-10 renal
HCC-2998 colon = tested on: HCC-2998 colon
786-0 renal = tested on: 786-0 renal
SF-295 CNS = tested on: SF-295 CNS
SF-539 CNS = tested on: SF-539 CNS
HCT-116 colon = tested on: HCT-116 colon
M14 melanoma = tested on: M14 melanoma
UACC-62 melanoma = tested on: UACC-62 melanoma
SR leukemia = tested on: SR leukemia
MDA-MB-435 melanoma = tested on: MDA-MB-435 melanoma
OVCAR-4 ovarian = tested on: OVCAR-4 ovarian
SNB-75 CNS = tested on: SNB-75 CNS
NCI-H322M lung = tested on: NCI-H322M lung
HCT-15 colon = tested on: HCT-15 colon
SK-OV-3 ovarian = tested on: SK-OV-3 ovarian

## C[C@@H](N)C1CCC(C(=O)Nc2ccncc2)CC1 (stereo partly drawn)
HOP-62 NSCLC
  GI50: 77.4 µM
  TGI: > 100 µM
HS 578T breast
  GI50: 38.5 µM
  TGI: > 100 µM
MCF7 breast
  GI50: 60.3 µM
  TGI: > 100 µM
HL-60(TB) leukemia
  GI50: 64 µM
  TGI: > 100 µM
MALME-3M melanoma
  GI50: > 100 µM
  TGI: > 100 µM
NCI-H460 NSCLC
  GI50: > 100 µM
  TGI: > 100 µM
SF-268 CNS
  GI50: 69.7 µM
  TGI: > 100 µM
A498 renal
  GI50: > 100 µM
  TGI: > 100 µM
LOX IMVI melanoma
  GI50: > 100 µM
  TGI: > 100 µM
SN12C renal
  GI50: > 100 µM
  TGI: > 100 µM
CAKI-1 renal
  GI50: > 100 µM
  TGI: > 100 µM
SNB-19 CNS
  GI50: > 100 µM
  TGI: > 100 µM
RXF 393 renal
  GI50: 40.9 µM
  TGI: > 100 µM
UACC-257 melanoma
  GI50: > 100 µM
  TGI: > 100 µM
NCI/ADR-RES ovarian
  GI50: > 100 µM
  TGI: > 100 µM
A549 NSCLC
  GI50: > 100 µM
  TGI: > 100 µM
MDA-MB-468 breast
  GI50: 31 µM
  TGI: > 100 µM
U251 glioblastoma
  GI50: 87.8 µM
  TGI: > 100 µM
SK-MEL-2 melanoma
  GI50: > 100 µM
  TGI: > 100 µM
KM12 colon
  GI50: > 100 µM
  TGI: > 100 µM
SW-620 colon
  GI50: 92 µM
  TGI: > 100 µM
OVCAR-5 ovarian
  GI50: > 100 µM
  TGI: > 100 µM
DU-145 prostate
  GI50: > 100 µM
  TGI: > 100 µM
UO-31 renal
  GI50: > 100 µM
  TGI: > 100 µM
ACHN renal
  GI50: > 100 µM
  TGI: > 100 µM
NCI-H226 lung
  GI50: > 100 µM
  TGI: > 100 µM
HT29 colon
  GI50: 68.4 µM
  TGI: > 100 µM
EKVX NSCLC
  GI50: > 100 µM
  TGI: > 100 µM
RPMI-8226 leukemia
  GI50: 88.4 µM
  TGI: > 100 µM
BT-549 breast
  GI50: 25.9 µM
  TGI: > 100 µM
NCI-H23 lung
  GI50: > 100 µM
  TGI: > 100 µM
COLO 205 colon
  GI50: > 100 µM
  TGI: > 100 µM
MDA-MB-231 breast
  GI50: > 100 µM
  TGI: > 100 µM
CCRF-CEM leukemia
  GI50: > 100 µM
  TGI: > 100 µM
SK-MEL-28 melanoma
  GI50: > 100 µM
  TGI: > 100 µM
SK-MEL-5 melanoma
  GI50: > 100 µM
  TGI: > 100 µM
MOLT-4 leukemia
  GI50: 50.7 µM
  TGI: > 100 µM
PC-3 prostate
  GI50: > 100 µM
  TGI: > 100 µM
IGROV1 ovarian
  GI50: 80 µM
  TGI: > 100 µM
NCI-H522 lung
  GI50: > 100 µM
  TGI: > 100 µM
T-47D breast
  GI50: 99.3 µM
  TGI: > 100 µM
OVCAR-3 ovarian
  GI50: > 100 µM
  TGI: > 100 µM
HOP-92 NSCLC
  GI50: 75.8 µM
  TGI: > 100 µM
K-562 leukemia
  GI50: 39.9 µM
  TGI: > 100 µM
TK-10 renal
  GI50: > 100 µM
  TGI: > 100 µM
HCC-2998 colon
  GI50: 85.3 µM
  TGI: > 100 µM
786-0 renal
  GI50: > 100 µM
  TGI: > 100 µM
SF-295 CNS
  GI50: 77.8 µM
  TGI: > 100 µM
SF-539 CNS
  GI50: > 100 µM
  TGI: > 100 µM
HCT-116 colon
  GI50: > 100 µM
  TGI: > 100 µM
M14 melanoma
  GI50: > 100 µM
  TGI: > 100 µM
UACC-62 melanoma
  GI50: > 100 µM
  TGI: > 100 µM
SR leukemia
  GI50: 7.94 µM
  TGI: 21.9 µM
MDA-MB-435 melanoma
  GI50: > 100 µM
  TGI: > 100 µM
OVCAR-4 ovarian
  GI50: > 100 µM
  TGI: > 100 µM
SNB-75 CNS
  GI50: 55.9 µM
  TGI: > 100 µM
NCI-H322M lung
  GI50: > 100 µM
  TGI: > 100 µM
HCT-15 colon
  GI50: > 100 µM
  TGI: > 100 µM
SK-OV-3 ovarian
  GI50: > 100 µM
  TGI: > 100 µM
